Laboratory results taken from patent publication US8835429B2, “Pyrimidine compounds, their use as mTOR kinase and Pl3 kinase inhibitors, and their syntheses” (Wyeth LLC, priority 2009, dated 2014).

Experiments:
LNCap = experiment: In vitro cell growth assay (MTS), LNCap; type: cell-based; conditions: LNCaP, 72 h, human prostate line, three days after drug treatment
Experimental: (§1) The cell lines used were human prostate lines LNCap and PC3MM2, human breast lines MDA468 and MCF7, human renal line HTB44 (A498), human colon line HCT116, and human ovarian line OVCAR3. Cells were plated in 96-well culture plates. One day following plating, the inhibitors were added to cells. Three days after drug treatment, viable cell densities were determined by metabolic conversion (by viable cells) of the dye MTS, a well-established cell proliferation assay. The assays were performed using an assay kit purchased from Promega Corp. (Madison, Wis.) following the protocol supplied with the kit. The MTS assay results were read in a 96-well plate reader by measuring absorbance at 490 nm. The effect of each treatment was calculated as percent of control growth relative to the vehicle-treated cells grown in the same culture plate.

PI3K-alpha = PI3K-alpha (Homo sapiens, UniProt P42336); experiment: PI3K-alpha fluorescence polarization assay; type: biochemical; conditions: 20 μM PIP2, 25 μM ATP; read-out: PI3Kα IC50
Experimental: The reaction buffer was 20 mM HEPES, pH 7.5, 2 mM MgCl2, 0.05% CHAPS; and 0.01% βME (added fresh). The stop/detection buffer was 100 mM HEPES, pH 7.5, 4 mM EDTA, 0.05% CHAPS; ATP 20 mM in water; PIP2 (diC8, Echelon, Salt Lake City Utah cat #P-4508) 1 mM in water (MW=856.5). The GST-GRP was 1.75 mg/mL or 1.4 mg/mL in 10% glycerol. The red detector (TAMRA) was 2.5 μM. Nunc 384-well black polypropylene fluorescent plates were used for PI3K assays.
The assay is run by placing 5 μL of diluted enzyme per well, then 5 μL of diluted compound (or 9.5 μL enzyme then 0.5 μL compound in DMSO) is added and mixed. Then, 10 μL substrate is added to start the reaction. The samples are incubated 30-60 minutes, then the reaction is stopped by adding 20 μL stop/detector mix. PI3K is diluted with reaction buffer (e.g., 5 μL or 7.5 μL PI3K into 620 μL reaction buffer), and 5 μL of diluted enzyme is used per well. A 5 μL portion of reaction buffer or of drug diluted in buffer (e.g., 4 μL/100 so final DMSO is 1% in reaction) is added to each. Pipetting up and down mixes the samples. Alternatively, the enzyme can be diluted to 1215 μL. In this case 9.8 μL is added per well and 0.2 μL compound is added in DMSO.
To prepare 1 mL of substrate solution, 955 μL reaction buffer, 40 μL PIP2, and 2.5 μL ATP are mixed. 10 μL of substrate is added to each well to start the reaction. […] The stop/detector mix is prepared by mixing 4 μL red detector and 1.6 μL or 2.0 μL GST-GRP with 1 mL stop buffer, which results in 10 nM probe and 70 nM GST-GRP. 20 μL of the stop/detector mix is added to each well to stop the reaction. The plates are read after 30-90 minutes keeping the red probe solutions dark. For the zero time point, stop/detector mix is added to the enzyme just before adding substrate. For an extra control, stop/detector mix is added to buffer (no enzyme) and substrate or to just buffer (no substrate). […] The recommended reaction has 0.06 μL per 20 μL (0.015 μg/20 μL) or 0.01125 μg/15 μL or 0.75 μg/mL.
Plates are read on machines with filters for TAMRA. The units are mP with no enzyme controls reading app 190-220 mP units. Fully active enzyme reduces fluorescence polarization down to 70-100 mP after 30 minutes. An active compound raises the mP values halfway to control or to 120-150 mP units.

MDA468 = experiment: In vitro cell growth assay (MTS), MDA468; type: cell-based; conditions: 72 h, human breast line MDA468, three days after drug treatment, read-out: MDA IC50
Experimental: as §1

mTOR = mTOR (Homo sapiens, UniProt P42345); experiment: mTOR enzyme assay (DELFIA, purified FLAG-TOR, His6-S6K substrate); type: biochemical; parameters: FLAG; conditions: 100 μM ATP, 2 hours
Sequence of mTOR (P42345 1360-2549 limits assumed): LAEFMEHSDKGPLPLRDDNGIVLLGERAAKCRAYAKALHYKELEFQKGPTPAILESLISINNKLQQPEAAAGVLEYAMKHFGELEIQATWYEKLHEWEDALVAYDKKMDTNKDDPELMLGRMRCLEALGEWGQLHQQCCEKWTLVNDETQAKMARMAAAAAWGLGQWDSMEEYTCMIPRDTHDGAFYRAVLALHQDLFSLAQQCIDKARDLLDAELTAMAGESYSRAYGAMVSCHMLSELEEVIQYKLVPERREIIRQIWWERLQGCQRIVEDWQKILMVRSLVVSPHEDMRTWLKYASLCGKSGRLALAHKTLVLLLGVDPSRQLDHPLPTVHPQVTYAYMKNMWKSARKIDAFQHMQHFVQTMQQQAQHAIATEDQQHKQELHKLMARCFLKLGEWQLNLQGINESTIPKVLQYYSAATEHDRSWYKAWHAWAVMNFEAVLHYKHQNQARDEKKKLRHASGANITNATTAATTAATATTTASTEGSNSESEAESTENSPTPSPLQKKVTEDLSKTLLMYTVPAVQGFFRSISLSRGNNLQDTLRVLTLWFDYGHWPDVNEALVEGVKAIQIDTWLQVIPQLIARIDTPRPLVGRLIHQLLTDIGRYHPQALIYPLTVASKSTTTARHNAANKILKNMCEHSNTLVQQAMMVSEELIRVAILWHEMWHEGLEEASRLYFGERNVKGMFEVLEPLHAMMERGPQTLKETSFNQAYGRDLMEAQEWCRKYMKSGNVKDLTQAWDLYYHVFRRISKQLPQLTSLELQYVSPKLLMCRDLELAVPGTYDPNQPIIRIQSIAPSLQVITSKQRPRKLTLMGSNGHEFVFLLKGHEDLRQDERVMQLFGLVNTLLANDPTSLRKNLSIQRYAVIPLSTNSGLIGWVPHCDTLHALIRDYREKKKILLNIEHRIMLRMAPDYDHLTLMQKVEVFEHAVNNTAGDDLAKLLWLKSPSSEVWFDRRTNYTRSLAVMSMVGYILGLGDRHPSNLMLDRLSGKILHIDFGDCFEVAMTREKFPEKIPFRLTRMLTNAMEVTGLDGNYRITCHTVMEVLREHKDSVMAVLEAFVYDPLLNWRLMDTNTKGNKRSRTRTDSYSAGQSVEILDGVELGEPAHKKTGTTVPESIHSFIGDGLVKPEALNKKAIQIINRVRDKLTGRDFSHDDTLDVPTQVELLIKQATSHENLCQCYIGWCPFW

Sequence of PI3K-alpha (P42336 whole entry, species assumed): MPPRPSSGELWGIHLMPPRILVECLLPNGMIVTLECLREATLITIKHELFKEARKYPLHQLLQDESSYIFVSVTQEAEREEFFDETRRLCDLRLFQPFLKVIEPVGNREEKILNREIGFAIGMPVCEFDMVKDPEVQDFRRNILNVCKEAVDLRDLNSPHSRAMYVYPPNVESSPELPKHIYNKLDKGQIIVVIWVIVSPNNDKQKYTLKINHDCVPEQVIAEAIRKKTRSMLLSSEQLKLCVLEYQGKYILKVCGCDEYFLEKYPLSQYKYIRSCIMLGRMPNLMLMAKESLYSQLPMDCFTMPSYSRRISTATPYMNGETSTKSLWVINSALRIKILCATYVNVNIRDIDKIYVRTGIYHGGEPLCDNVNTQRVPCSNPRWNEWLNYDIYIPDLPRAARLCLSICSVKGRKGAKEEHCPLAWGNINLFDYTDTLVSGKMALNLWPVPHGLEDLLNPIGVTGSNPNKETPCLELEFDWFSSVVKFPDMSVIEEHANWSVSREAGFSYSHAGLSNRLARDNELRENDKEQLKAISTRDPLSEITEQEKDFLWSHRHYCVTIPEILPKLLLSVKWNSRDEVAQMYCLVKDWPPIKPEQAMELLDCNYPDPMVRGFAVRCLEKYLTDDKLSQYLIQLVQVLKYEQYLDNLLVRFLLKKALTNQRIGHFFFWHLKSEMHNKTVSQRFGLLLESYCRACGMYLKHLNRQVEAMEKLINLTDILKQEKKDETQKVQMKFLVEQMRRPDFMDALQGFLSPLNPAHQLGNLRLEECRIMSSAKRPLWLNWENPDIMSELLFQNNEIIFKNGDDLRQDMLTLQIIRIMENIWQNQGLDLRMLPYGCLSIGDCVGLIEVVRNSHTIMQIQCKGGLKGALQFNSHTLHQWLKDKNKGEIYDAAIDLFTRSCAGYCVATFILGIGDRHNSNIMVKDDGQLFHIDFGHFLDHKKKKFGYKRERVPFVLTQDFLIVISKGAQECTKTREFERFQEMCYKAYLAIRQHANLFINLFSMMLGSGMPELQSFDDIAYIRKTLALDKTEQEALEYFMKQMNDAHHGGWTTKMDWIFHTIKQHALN
Sequence of PI3K-alpha (P27986 whole entry partner, species assumed): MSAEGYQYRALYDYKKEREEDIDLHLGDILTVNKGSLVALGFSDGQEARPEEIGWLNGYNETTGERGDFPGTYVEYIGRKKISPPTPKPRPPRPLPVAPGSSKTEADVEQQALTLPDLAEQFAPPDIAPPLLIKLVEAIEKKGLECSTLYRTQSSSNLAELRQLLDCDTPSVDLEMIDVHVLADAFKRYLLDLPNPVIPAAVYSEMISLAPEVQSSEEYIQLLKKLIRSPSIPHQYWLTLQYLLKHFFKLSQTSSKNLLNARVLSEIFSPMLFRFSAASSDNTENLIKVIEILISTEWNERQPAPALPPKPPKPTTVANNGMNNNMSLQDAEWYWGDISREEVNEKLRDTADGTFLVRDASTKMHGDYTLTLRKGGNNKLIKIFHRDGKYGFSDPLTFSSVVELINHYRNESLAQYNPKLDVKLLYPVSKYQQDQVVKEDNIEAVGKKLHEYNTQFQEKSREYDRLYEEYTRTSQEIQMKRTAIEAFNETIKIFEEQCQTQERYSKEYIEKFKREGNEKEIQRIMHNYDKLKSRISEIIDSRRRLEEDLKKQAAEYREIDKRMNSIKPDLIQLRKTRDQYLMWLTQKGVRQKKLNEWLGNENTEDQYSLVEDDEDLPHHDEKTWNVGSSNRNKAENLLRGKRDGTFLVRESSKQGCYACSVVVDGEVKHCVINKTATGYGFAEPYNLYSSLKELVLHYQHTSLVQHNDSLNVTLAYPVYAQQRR

Compound: CN1CCN(c2ccc(NC(=O)Nc3ccc(-c4nc(-c5ccccc5)cc(N5CC6CCC(C5)O6)n4)cc3)cc2)CC1 [1-[4-(4-methylpiperazin-1-yl)phenyl]-3-{4-[4-(8-oxa-3-azabicyclo[3.2.1]oct-3-yl)-6-phenylpyrimidin-2-yl]phenyl}urea]
- IC50 (LNCap): 78 nM
- IC50 (PI3K-alpha): 2430 nM
- IC50 (MDA468): 270 nM
- IC50 (mTOR): 17.5 nM

Compound: O=C(Nc1ccc(CO)cc1)Nc1ccc(-c2nc(-c3ccccc3)cc(N3CC4CCC(C3)O4)n2)cc1 [1-[4-(hydroxymethyl)phenyl]-3-{4-[4-(8-oxa-3-azabicyclo[3.2.1]oct-3-yl)-6-phenylpyrimidin-2-yl]phenyl}urea]
- IC50 (LNCap): 56 nM
- IC50 (PI3K-alpha): 102 nM
- IC50 (MDA468): 130 nM
- IC50 (mTOR): 2.9 nM

Compound: CC(C)Nc1cc(N2CC3CCC(C2)O3)nc(-c2ccc(NC(=O)NC3CC3)cc2)n1 [1-cyclopropyl-3-(4-{4-[(1-methylethyl)amino]-6-(8-oxa-3-azabicyclo[3.2.1]oct-3-yl)pyrimidin-2-yl}phenyl)urea]
- IC50 (LNCap): 700 nM
- IC50 (PI3K-alpha): 3620 nM
- IC50 (MDA468): 4200 nM
- IC50 (mTOR): 8.2 nM

Compound: CS(=O)(=O)Cc1cc(N2CC3CCC(C2)O3)nc(-c2ccc(NC(=O)NC3CC3)cc2)n1 [1-cyclopropyl-3-(4-{4-[(methylsulfonyl)methyl]-6-(8-oxa-3-azabicyclo[3.2.1]oct-3-yl)pyrimidin-2-yl}phenyl)urea]
- IC50 (LNCap): 1000 nM
- IC50 (PI3K-alpha): 4640 nM
- IC50 (MDA468): 2500 nM
- IC50 (mTOR): 5.7 nM

Compound: O=C(Nc1ccc(-c2cc(N3CC4CCC(C3)O4)nc(N3CC4CCC(C3)O4)n2)cc1)NC1CC1 [1-cyclopropyl-3-[4-(2,6-di-8-oxa-3-azabicyclo[3.2.1]oct-3-ylpyrimidin-4-yl)phenyl]urea]
- IC50 (LNCap): 800 nM
- IC50 (PI3K-alpha): 3930 nM
- IC50 (MDA468): 6000 nM
- IC50 (mTOR): 38.5 nM

Compound: CC(C)Oc1cc(N2CC3CCC(C2)O3)nc(-c2ccc(NC(=O)NC3CC3)cc2)n1 [1-cyclopropyl-3-{4-[4-(1-methylethoxy)-6-(8-oxa-3-azabicyclo[3.2.1]oct-3-yl)pyrimidin-2-yl]phenyl}urea]
- IC50 (LNCap): 290 nM
- IC50 (PI3K-alpha): 7200 nM
- IC50 (MDA468): 1800 nM
- IC50 (mTOR): 4.45 nM

Compound: O=C(Nc1ccc(-c2nc(N3CC4CCC(C3)O4)cc(C(F)(F)F)n2)cc1)NC1CC1 [1-cyclopropyl-3-{4-[4-(8-oxa-3-azabicyclo[3.2.1]oct-3-yl)-6-(trifluoromethyl)pyrimidin-2-yl]phenyl}urea]
- IC50 (LNCap): 450 nM
- IC50 (PI3K-alpha): 8160 nM
- IC50 (MDA468): 3000 nM
- IC50 (mTOR): 10.4 nM

Compound: O=C(Nc1ccc(-c2nc(-c3ccccc3)cc(N3CC4CCC(C3)O4)n2)cc1)NC1CC1 [1-cyclopropyl-3-{4-[4-(8-oxa-3-azabicyclo[3.2.1]oct-3-yl)-6-phenylpyrimidin-2-yl]phenyl}urea]
- IC50 (LNCap): 1000 nM
- IC50 (PI3K-alpha): 3680 nM
- IC50 (MDA468): 5000 nM
- IC50 (mTOR): 19.5 nM

Compound: CCNC(=O)Nc1ccc(-c2nc(CS(C)(=O)=O)cc(N3CC4CCC(C3)O4)n2)cc1 [1-ethyl-3-(4-{4-[(methylsulfonyl)methyl]-6-(8-oxa-3-azabicyclo[3.2.1]oct-3-yl)pyrimidin-2-yl}phenyl)urea]
- IC50 (LNCap): 1000 nM
- IC50 (PI3K-alpha): 1810 nM
- IC50 (MDA468): 1900 nM
- IC50 (mTOR): 5.75 nM

Compound: CCNC(=O)Nc1ccc(-c2nc(-c3ccccc3)cc(N3CC4CCC(C3)O4)n2)cc1 [1-ethyl-3-{4-[4-(8-oxa-3-azabicyclo[3.2.1]oct-3-yl)-6-phenylpyrimidin-2-yl]phenyl}urea]
- IC50 (LNCap): 450 nM
- IC50 (PI3K-alpha): 2050 nM
- IC50 (MDA468): 1900 nM
- IC50 (mTOR): 11 nM

Compound: CNC(=O)Nc1ccc(-c2nc(NC(C)C)cc(N3CC4CCC(C3)O4)n2)cc1 [1-methyl-3-(4-{4-[(1-methylethyl)amino]-6-(8-oxa-3-azabicyclo[3.2.1]oct-3-yl)pyrimidin-2-yl}phenyl)urea]
- IC50 (LNCap): 500 nM
- IC50 (PI3K-alpha): 810 nM
- IC50 (MDA468): 2100 nM
- IC50 (mTOR): 12 nM

Compound: CNC(=O)Nc1ccc(-c2nc(CS(C)(=O)=O)cc(N3CC4CCC(C3)O4)n2)cc1 [1-methyl-3-(4-{4-[(methylsulfonyl)methyl]-6-(8-oxa-3-azabicyclo[3.2.1]oct-3-yl)pyrimidin-2-yl}phenyl)urea]
- IC50 (LNCap): 2050 nM
- IC50 (PI3K-alpha): 1730 nM
- IC50 (MDA468): 3300 nM
- IC50 (mTOR): 13.5 nM

Compound: CNC(=O)Nc1ccc(-c2nc(OC(C)C)cc(N3CC4CCC(C3)O4)n2)cc1 [1-methyl-3-{4-[4-(1-methylethoxy)-6-(8-oxa-3-azabicyclo[3.2.1]oct-3-yl)pyrimidin-2-yl]phenyl}urea]
- IC50 (LNCap): 190 nM
- IC50 (PI3K-alpha): 700 nM
- IC50 (MDA468): 890 nM
- IC50 (mTOR): 3 nM

Compound: CNC(=O)Nc1ccc(-c2nc(N3CC4CCC(C3)O4)cc(C(F)(F)F)n2)cc1 [1-methyl-3-{4-[4-(8-oxa-3-azabicyclo[3.2.1]oct-3-yl)-6-(trifluoromethyl)pyrimidin-2-yl]phenyl}urea]
- IC50 (LNCap): 670 nM
- IC50 (PI3K-alpha): 1550 nM
- IC50 (MDA468): 2100 nM
- IC50 (mTOR): 11.5 nM

Compound: CNC(=O)Nc1ccc(-c2nc(-c3ccccc3)cc(N3CC4CCC(C3)O4)n2)cc1 [1-methyl-3-{4-[4-(8-oxa-3-azabicyclo[3.2.1]oct-3-yl)-6-phenylpyrimidin-2-yl]phenyl}urea]
- IC50 (LNCap): 510 nM
- IC50 (PI3K-alpha): 953 nM
- IC50 (MDA468): 2000 nM
- IC50 (mTOR): 22 nM

Compound: CNC(=O)Nc1ccc(-c2nccc(N3CC4CCC(C3)O4)n2)cc1 [1-methyl-3-{4-[4-(8-oxa-3-azabicyclo[3.2.1]oct-3-yl)pyrimidin-2-yl]phenyl}urea]
- IC50 (LNCap): 2500 nM
- IC50 (PI3K-alpha): 1840 nM
- IC50 (MDA468): 10500 nM
- IC50 (mTOR): 132 nM

Compound: CN(C)CCOc1ccc(NC(=O)Nc2ccc(-c3nc(CS(C)(=O)=O)cc(N4CC5CCC(C4)O5)n3)cc2)cc1 [1-{4-[2-(dimethylamino)ethoxy]phenyl}-3-(4-{4-[(methylsulfonyl)methyl]-6-(8-oxa-3-azabicyclo[3.2.1]oct-3-yl)pyrimidin-2-yl}phenyl)urea]
- IC50 (LNCap): 90 nM
- IC50 (PI3K-alpha): 405 nM
- IC50 (MDA468): 165 nM
- IC50 (mTOR): 5 nM

Compound: CN(C)CCOc1ccc(NC(=O)Nc2ccc(-c3nc(N4C5CCC4COC5)cc(N4C5CCC4COC5)n3)cc2)cc1 [1-{4-[2-(dimethylamino)ethoxy]phenyl}-3-[4-(4,6-di-3-oxa-8-azabicyclo[3.2.1]oct-8-ylpyrimidin-2-yl)phenyl]urea]
- IC50 (LNCap): 4 nM
- IC50 (PI3K-alpha): 1540 nM
- IC50 (MDA468): 9 nM
- IC50 (mTOR): 2.5 nM

Compound: CN(C)CCOc1ccc(NC(=O)Nc2ccc(-c3nc(-c4ccccc4)cc(N4CC5CCC(C4)O5)n3)cc2)cc1 [1-{4-[2-(dimethylamino)ethoxy]phenyl}-3-{4-[4-(8-oxa-3-azabicyclo[3.2.1]oct-3-yl)-6-phenylpyrimidin-2-yl]phenyl}urea]
- IC50 (LNCap): 120 nM
- IC50 (PI3K-alpha): 141 nM
- IC50 (MDA468): 300 nM
- IC50 (mTOR): 19 nM

Compound: CC(C)Nc1cc(N2C3CCC2COC3)nc(-c2ccc(NC(=O)Nc3ccc(OCCN(C)C)cc3)cc2)n1 [1-{4-[2-(dimethylamino)ethoxy]phenyl}-3-{4-[4-(isopropylamino)-6-(3-oxa-8-azabicyclo[3.2.1]oct-8-yl)pyrimidin-2-yl]phenyl}urea]
- IC50 (LNCap): 50 nM
- IC50 (PI3K-alpha): 2380 nM
- IC50 (MDA468): 710 nM
- IC50 (mTOR): 3.6 nM

Compound: CC(C)Oc1cc(N2CC3CCC(C2)O3)nc(-c2ccc(NC(=O)Nc3ccc(N4CCN(C)CC4)cc3)cc2)n1 [1-{4-[4-(1-methylethoxy)-6-(8-oxa-3-azabicyclo[3.2.1]oct-3-yl)pyrimidin-2-yl]phenyl}-3-[4-(4-methylpiperazin-1-yl)phenyl]urea]
- IC50 (LNCap): 30 nM
- IC50 (PI3K-alpha): 518 nM
- IC50 (MDA468): 105 nM
- IC50 (mTOR): 3.32 nM
